Test results as given in US12319655B2, “RAF kinase inhibitors and methods of use thereof” (Deciphera Pharmaceuticals, LLC, priority 2021, dated 2025).

How the values were obtained:
[1] = biological target: A-Raf kinase (SEQ. ID No: 1) (Homo sapiens (Human), UniProt P10398, Y301D/Y302D); assay: Biochemical Assay for A-Raf (1); settings: Table J, assay version (1); read-out: ARAF (1) IC50
Experimental: Biochemical Assay for A-Raf (1)
(§1) Activity of A-Raf kinase (SEQ. ID No: 1) was determined spectroscopically using a coupled pyruvate kinase/lactate dehydrogenase assay that continuously monitors the ATP hydrolysis-dependent oxidation of NADH (e.g., Schindler et al., Science, 2000, 289, 1938-1942). Assays were conducted in 384-well plates (100 μL final volume) using 5.55 nM A-Raf (Sigma), 1.5 units pyruvate kinase, 2.1 units lactate dehydrogenase, 1 mM phosphoenol pyruvate, 0.28 mM NADH, 30.1 nM MEK (SignalChem), and 1 mM ATP in assay buffer (100 mM Tris, pH 7.5, 15 mM MgCl2, 0.5 mM DTT, 0.1% octyl-glucoside, 0.002% (w/v) BSA, and 0.002% Triton X-100). Inhibition of A-Raf was measured by adding serial diluted test compound (final assay concentration of 1% DMSO). A decrease in absorption at 340 nm was monitored continuously for 6 h at 30° C. on a multi-mode microplate reader (BioTek). The reaction rate was calculated using the 4 to 5 h time frame. The reaction rate at each concentration of compound was converted to percent inhibition using controls (i.e., reaction with no test compound and reaction with a known inhibitor) and IC50 values were calculated by fitting a four-parameter sigmoidal curve to the data using Prism (GraphPad software).

A375 cells = assay: A375 Cell Proliferation Assay (1); assay type: cell-based; settings: Homo sapiens, A-375
Experimental: A375 Cell Proliferation Assay (1)
A375 cells (catalog (#CRL-1619) are obtained from the American Type Culture Collect (ATTC, Manassas, VA). Briefly, cells were grown in DMEM High Glucose supplemented with 10% characterized fetal bovine serum (Invitrogen, Carlsbad, CA) and 1% Penicillin/Streptomycin/L-Glutamine at 37° C., 5% CO2, and 95% humidity. Cells are expanded until reaching 70-95% confluency at which point they are sub-cultured or harvested for assay use. A serial dilution of test compound is dispensed into a 96-well black clear bottom plate in triplicate. Two thousand five hundred cells are added per well in 200 μL complete growth medium in the 96-well plate. Plates are incubated for 67-72 h at 37° C., 5% CO2, and 95% humidity. At the end of the incubation, 40 μL of a 440 μM solution of resazurin (Sigma, St. Louis, MO) in PBS is added to each well of the plate and plates are incubated for an additional 5-6 h at 37° C., 5% CO2, and 95% humidity. Plates are read on a Synergy2 or equivalent reader (Biotek, Winooski VT) using an excitation of 540 nm and an emission of 600 nm. Data is analyzed using Prism software (GraphPad, San Diego, CA) to calculate IC50 values.

[2] = biological target: C-Raf kinase (SEQ. ID NO: 3) (Homo sapiens (Human), UniProt P04049, Y340D/Y341D); assay: Biochemical Assay for C-Raf (1); settings: Table J, assay version (1); read-out: CRAF (1) IC50
C-Raf kinase (SEQ. ID NO: 3), sequence (P04049 307-648 Y340D/Y341D): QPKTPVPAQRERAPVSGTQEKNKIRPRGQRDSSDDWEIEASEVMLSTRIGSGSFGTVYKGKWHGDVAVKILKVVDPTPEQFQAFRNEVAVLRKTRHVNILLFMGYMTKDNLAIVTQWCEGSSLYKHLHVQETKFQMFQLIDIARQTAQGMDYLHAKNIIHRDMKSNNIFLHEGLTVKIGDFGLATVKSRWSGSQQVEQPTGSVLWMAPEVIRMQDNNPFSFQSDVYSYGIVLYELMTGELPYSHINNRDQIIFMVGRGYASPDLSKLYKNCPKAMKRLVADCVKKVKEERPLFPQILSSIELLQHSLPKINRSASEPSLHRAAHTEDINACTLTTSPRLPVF
Experimental: Biochemical Assay for C-Raf (1)
as §1, with “C-Raf” for “A-Raf”, “NO: 3)” for “No: 1)”, “0.43” for “5.55”, “Ph” for “pH”

[3] = biological target: B-Raf kinase (SEQ. ID NO: 2) (Homo sapiens (Human), UniProt P15056); assay: Biochemical Assay for B-Raf (1); settings: Table J, assay version (1); read-out: BRAF (1) IC50
B-Raf kinase (SEQ. ID NO: 2), sequence (P15056 416-766): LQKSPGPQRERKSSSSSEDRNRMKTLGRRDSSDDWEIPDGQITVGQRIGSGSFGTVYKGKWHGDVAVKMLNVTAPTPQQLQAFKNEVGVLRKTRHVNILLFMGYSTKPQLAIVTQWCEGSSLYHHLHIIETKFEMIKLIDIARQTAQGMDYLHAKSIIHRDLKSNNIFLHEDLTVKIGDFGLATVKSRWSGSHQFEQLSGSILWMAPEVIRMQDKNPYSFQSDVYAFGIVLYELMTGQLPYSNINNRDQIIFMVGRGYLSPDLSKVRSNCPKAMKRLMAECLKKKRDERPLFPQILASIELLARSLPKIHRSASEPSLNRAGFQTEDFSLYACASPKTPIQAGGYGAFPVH
Experimental: Biochemical Assay for B-Raf (1)
as §1, with “B-Raf” for “A-Raf”, “NO: 2)” for “No: 1)”, “0.13” for “5.55”, “Ph” for “pH”

[4] = biological target: B-Raf (V600E) (SEQ. ID NO: 4) kinase (Homo sapiens (Human), UniProt P15056, V600E); assay: Biochemical Assay for B-Raf (V600E) (1); settings: Table J, BRAF V600E, assay version (1); read-out: BRAF VE (1) IC50
B-Raf (V600E) (SEQ. ID NO: 4) kinase, sequence (P15056 416-766 V600E): as the sequence (P15056 416-766) above, with V185E counted along it
Experimental: Biochemical Assay for B-Raf (V600E) (1)
Activity of B-Raf (V600E) (SEQ. ID NO: 4) kinase was determined spectroscopically using a coupled pyruvate kinase/lactate dehydrogenase assay that continuously monitors the ATP hydrolysis-dependent oxidation of NADH (e.g., Schindler et al., Science, 2000, 289, 1938-1942). Assays were conducted in 384-well plates (100 μL final volume) using 0.03 nM B-Raf (SignalChem), 1.5 units pyruvate kinase, 2.1 units lactate dehydrogenase, 1 mM phosphoenol pyruvate, 0.28 mM NADH, 30.1 nM MEK (SignalChem), and 1 mM ATP in assay buffer (100 mM Tris, Ph 7.5, 15 mM MgCl2, 0.5 mM DTT, 0.1% octyl-glucoside, 0.002% (w/v) BSA, and 0.002% Triton X-100). Inhibition of B-Raf (V600E) was measured by adding serial diluted test compound (final assay concentration of 1% DMSO). A decrease in absorption at 340 nm was monitored continuously for 6 h at 30° C. on a multi-mode microplate reader (BioTek). The reaction rate was calculated using the 3 to 4 h time frame. The reaction rate at each concentration of compound was converted to percent inhibition using controls (i.e., reaction with no test compound and reaction with a known inhibitor) and IC50 values were calculated by fitting a four-parameter sigmoidal curve to the data using Prism (GraphPad software).

A-Raf kinase (SEQ. ID No: 1), sequence (P10398 other isoform, or with tags, fused parts or gaps Y301D (already in the parent)/Y302D (already in the parent)): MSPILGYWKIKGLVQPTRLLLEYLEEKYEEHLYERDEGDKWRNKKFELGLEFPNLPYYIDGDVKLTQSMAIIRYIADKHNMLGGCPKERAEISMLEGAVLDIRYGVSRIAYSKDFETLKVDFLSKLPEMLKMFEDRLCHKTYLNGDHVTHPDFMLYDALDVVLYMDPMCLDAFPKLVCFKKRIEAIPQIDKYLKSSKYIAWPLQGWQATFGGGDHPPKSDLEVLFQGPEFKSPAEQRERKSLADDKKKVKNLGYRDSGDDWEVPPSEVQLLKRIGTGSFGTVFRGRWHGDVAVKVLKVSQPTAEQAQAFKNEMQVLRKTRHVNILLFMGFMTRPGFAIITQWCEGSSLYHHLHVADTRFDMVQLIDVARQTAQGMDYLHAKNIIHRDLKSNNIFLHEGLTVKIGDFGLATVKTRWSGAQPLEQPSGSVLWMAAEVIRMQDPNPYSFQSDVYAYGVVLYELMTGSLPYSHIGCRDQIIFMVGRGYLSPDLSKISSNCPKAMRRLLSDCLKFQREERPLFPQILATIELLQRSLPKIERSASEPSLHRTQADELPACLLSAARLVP

IC50 [1] | IC50 (A375 cells) | IC50 [2] | IC50 [3] | IC50 [4] | Compound
0.5 to 1 µM | ≤ 0.1 µM | ≤ 0.1 µM | ≤ 0.1 µM | ≤ 0.1 µM | COC(C)(C)c1cc(C(=O)Nc2ccc(C)c(-c3nccc(-c4ccnc(NC(=O)C5CC5)c4)n3)c2)ccn1 [Example 239]
1 to 10 µM | 1 to 10 µM | ≤ 0.1 µM | ≤ 0.1 µM | ≤ 0.1 µM | Cc1ccc(NC(=O)c2ccnc(C(F)(F)F)c2)cc1-c1cccc(-c2ccnc(N)c2)c1 [Example 38]
1 to 10 µM | 0.5 to 1 µM | ≤ 0.1 µM | ≤ 0.1 µM | ≤ 0.1 µM | Cc1ncc(NC(=O)c2ccnc(C(F)(F)F)c2)cc1-c1cccc(-c2ccnc(NC(=O)CN(C)C)c2)c1 [Example 95]
1 to 10 µM | 0.1 to 0.5 µM | ≤ 0.1 µM | 0.1 to 0.5 µM | ≤ 0.1 µM | CCOc1cc(-c2cc(NC(=O)c3ccnc(C(F)(F)F)c3)c(F)cc2C)cc(-c2ccnc(NC(C)=O)c2)n1 [Example 9]
1 to 10 µM | 1 to 10 µM | 0.1 to 0.5 µM | 0.1 to 0.5 µM | ≤ 0.1 µM | Cc1ncc(NC(=O)c2ccnc(C(C)(C)C#N)c2)cc1-c1cccc(-c2ccnc(N)n2)c1 [Example 289]
1 to 10 µM | 1 to 10 µM | 0.1 to 0.5 µM | 0.1 to 0.5 µM | ≤ 0.1 µM | Cc1ccc(NC(=O)c2cccc(C(C)(C)C#N)c2)cc1-c1cncc(-c2ccnc(C(=O)NC3CC3)c2)n1 [Example 149]
1 to 10 µM | 1 to 10 µM | ≤ 0.1 µM | ≤ 0.1 µM | ≤ 0.1 µM | Cc1ccc(NC(=O)c2ccnc(C(F)(F)F)c2)cc1-c1ccnc(-c2cncnc2)c1 [Example 45]
1 to 10 µM | 0.1 to 0.5 µM | ≤ 0.1 µM | ≤ 0.1 µM | ≤ 0.1 µM | Cc1ncc(NC(=O)c2ccnc(C3(C#N)CC3)c2)cc1-c1nccc(-c2ccnc(NC(=O)C3CC3)c2)n1 [Example 293]
1 to 10 µM | 1 to 10 µM | ≤ 0.1 µM | ≤ 0.1 µM | ≤ 0.1 µM | Cc1ccc(NC(=O)c2ccnc(C(F)(F)F)c2)cc1-c1ccnc(-c2ccncc2)c1 [Example 44]
1 to 10 µM | 0.1 to 0.5 µM | 0.1 to 0.5 µM | 0.1 to 0.5 µM | ≤ 0.1 µM | CC(=O)Nc1cc(-c2cc(-c3cc(NC(=O)c4ccnc(C(C)(C)C#N)c4)c(F)cc3C)cn(C)c2=O)ccn1 [Example 116]
0.1 to 0.5 µM | 0.5 to 1 µM | ≤ 0.1 µM | ≤ 0.1 µM | ≤ 0.1 µM | Cc1ccc(NC(=O)c2ccnc(C(F)(F)F)c2)cc1-c1ccnc(-c2ccnc(NC(=O)CC#N)c2)n1 [Example 144]
1 to 10 µM | 1 to 10 µM | 1 to 10 µM | 1 to 10 µM | 1 to 10 µM | CNC(=O)c1cc(-c2cnnc(-c3cc(NC(=O)c4cnn(C5CC5)c4)cnc3C)c2)ccn1 [Example 324]
1 to 10 µM | 0.1 to 0.5 µM | ≤ 0.1 µM | ≤ 0.1 µM | ≤ 0.1 µM | CC(=O)Nc1cc(-c2nccc(-c3cc(NC(=O)c4ccnc(C(C)(C)C#N)c4)cnc3C)n2)ccn1 [Example 195]
0.5 to 1 µM | 1 to 10 µM | ≤ 0.1 µM | ≤ 0.1 µM | ≤ 0.1 µM | Cc1cc(F)c(NC(=O)c2ccnc(C(F)F)c2)cc1-c1cncc(-c2ccnc(NC(=O)C3CC3)c2)n1 [Example 275]
1 to 10 µM | 1 to 10 µM | 0.1 to 0.5 µM | 0.1 to 0.5 µM | ≤ 0.1 µM | CC(=O)Nc1cc(-c2cc(-c3cc(NC(=O)c4ccnc(C(F)(F)F)c4)c(F)cc3C)cc(=O)n2C)ccn1 [Example 155]
1 to 10 µM | 1 to 10 µM | ≤ 0.1 µM | ≤ 0.1 µM | ≤ 0.1 µM | CNC(=O)c1cc(-c2cccc(-c3cc(NC(=O)c4cccc(C)c4)cnc3C)c2)ccn1 [Example 91]
1 to 10 µM | 1 to 10 µM | ≤ 0.1 µM | 1 to 10 µM | ≤ 0.1 µM | CNC(=O)c1cc(-c2cc(-c3cc(NC(=O)c4ccnc(C(F)(F)F)c4)ccc3F)cc(C)n2)ccn1 [Example 66]
